{
  "source": "patent US9259401B2",
  "about": "(priority 2011, dated 2016)",
  "key": {"Male Laca mice": {"tested_on": "Male Laca mice", "experiment": "Porsolt Forced Swim test (behavioural despair test)", "type": "in vivo", "method": "Method: Porsolt Forced Swim test (also called behavioural despair test)\nAnimals are subjected to two trials during which they are force to swim in an acrylic glass cylinder filled with water and from which they cannot escape. The first trial lasts 15 minutes. Then, after 24-hours, a second trial is performed which lasts 5 minutes. The time that the animal spends without moving in the second trial is measured. This immobility time is decreased by antidepressants.\nAfter some time, the mice give up the attempt to escape from the water and subside into immobility. The duration of the immobility is measured. An animal was considered to be immobile whenever it remained floating passively in the water in a slightly hunched but upright position, its nose above the water surface. […] The total immobility period during the 6-min test was recorded with the help of stopwatch.\nThe immobility period data obtained from tables 1, 2 and 3 is plotted against the dose administered in FIG. 1, FIG. 2 and FIG. 3 respectively, as shown in the drawing accompanying this specification.\nTest Procedures: Porsolt Forced Swim test. Rectangular glass jar (25×12×25 cm^3) containing 15 cm of water maintained at 24±1° C.\nThe immobility period data obtained from Tables 4, 5, 6 and 7 is plotted against the dose administered in FIG. 4, FIG. 5, FIG. 6 and FIG. 7 respectively, as shown in the drawing accompanying this specification."}, "Norepinephrine": {"tested_on": "Norepinephrine", "experiment": "Biological amine levels by HPLC-ECD after 45 min: norepinephrine", "type": "in vivo, mice", "details": "fluoxetine 10 mg/kg", "method": "(§1) Test Substances: […] Animals: Male Laca mice. Test Procedures: Animals were sacrificed after 45 min of drug administration similar to the time period of behavioral observations. HPLC-ECD detector: Mobile phase—Phosphate buffer: […] • Column—ODS-3 C-18 column (250×4.6 mm I.D.; 5 μm particle size)"}, "Dopamine": {"tested_on": "Dopamine", "experiment": "Biological amine levels by HPLC-ECD after 45 min: dopamine", "type": "in vivo, mice", "details": "fluoxetine 10 mg/kg", "method": "as §1"}, "5-hydroxytryptamine": {"tested_on": "5-hydroxytryptamine", "experiment": "Biological amine levels by HPLC-ECD after 45 min: 5-hydroxytryptamine", "type": "in vivo, mice", "details": "fluoxetine 10 mg/kg", "method": "as §1"}, "[1]": {"details": "Table 7, tranylcypromine alone 5 mg/kg ip"}, "[2]": {"details": "Table 6, desipramine alone 5 mg/kg ip"}, "[3]": {"details": "Table 4, fluoxetine alone 5 mg/kg ip"}, "[4]": {"details": "Table 5, venlafaxine alone 2 mg/kg ip"}},
  "data": [
    {"compound": "N[C@@H]1C[C@H]1c1ccccc1", "note": "(racemic) [Tranylcypromine]", "values": [
      {"measurement": "% Decrease in immobility w.r.t vehicle group", "setting": "Male Laca mice; [1]", "result": 15.15, "unit": "%"},
      {"measurement": "Immobility period", "setting": "Male Laca mice; [1]", "result": "234 ± 20.41", "unit": "s"}
    ]},
    {"compound": "CNCCCN1c2ccccc2CCc2ccccc21", "note": "[Desipramine]", "values": [
      {"measurement": "% Decrease in immobility w.r.t vehicle group", "setting": "Male Laca mice; [2]", "result": 17.46, "unit": "%"},
      {"measurement": "Immobility period", "setting": "Male Laca mice; [2]", "result": "211.5 ± 21.97", "unit": "s"}
    ]},
    {"compound": "CNCCC(Oc1ccc(C(F)(F)F)cc1)c1ccccc1", "note": "(centres unmarked) [Fluoxetine]", "values": [
      {"measurement": "Norepinephrine % increase w.r.t Control", "setting": "Norepinephrine", "result": 40.87, "unit": "%"},
      {"measurement": "Norepinephrine (ng/mg tissue)", "setting": "Norepinephrine; n = 5", "result": "4.17 ± 0.23", "unit": "a ng/mg tissue"},
      {"measurement": "Dopamine % increase w.r.t Control", "setting": "Dopamine", "result": 12.15, "unit": "%"},
      {"measurement": "Dopamine (ng/mg tissue)", "setting": "Dopamine; n = 5", "result": "6.09 ± 0.54", "unit": "ng/mg tissue"},
      {"measurement": "% Decrease in immobility w.r.t saline treated group", "setting": "Male Laca mice; Table 1, fluoxetine 10 mg/kg", "result": 74.30, "unit": "%"},
      {"measurement": "Immobility period", "setting": "Male Laca mice; Table 1, fluoxetine 10 mg/kg", "result": "57 ± 17.45", "unit": "s"},
      {"measurement": "% Decrease in immobility w.r.t saline treated group", "setting": "Male Laca mice; Table 2, fluoxetine 10 mg/kg", "result": 70.51, "unit": "%"},
      {"measurement": "Immobility period", "setting": "Male Laca mice; Table 2, fluoxetine 10 mg/kg", "result": "57 ± 17.45", "unit": "s"},
      {"measurement": "% Decrease in immobility w.r.t saline treated group", "setting": "Male Laca mice; Table 3, fluoxetine 10 mg/kg", "result": 70.51, "unit": "%"},
      {"measurement": "Immobility period", "setting": "Male Laca mice; Table 3, fluoxetine 10 mg/kg", "result": "57 ± 17.45", "unit": "s"},
      {"measurement": "% Decrease in immobility w.r.t saline group", "setting": "Male Laca mice; [3]", "result": 12.30, "unit": "%"},
      {"measurement": "Immobility period", "setting": "Male Laca mice; [3]", "result": "172.75 ± 10.4", "unit": "s"},
      {"measurement": "5-hydroxytryptamine % increase w.r.t Control", "setting": "5-hydroxytryptamine", "result": 36.52, "unit": "%"},
      {"measurement": "5-hydroxytryptamine (ng/mg tissue)", "setting": "5-hydroxytryptamine; n = 5", "result": "5.42 ± 0.13", "unit": "ng/mg tissue"}
    ]},
    {"compound": "COc1ccc(C(CN(C)C)C2(O)CCCCC2)cc1", "note": "(centres unmarked) [Venlafaxine]", "values": [
      {"measurement": "% Decrease in immobility w.r.t vehicle group", "setting": "Male Laca mice; [4]", "result": 8.69, "unit": "%"},
      {"measurement": "Immobility period", "setting": "Male Laca mice; [4]", "result": "193.8 ± 13.26", "unit": "s"}
    ]}
  ]
}
